Patent publication US8809350B2, “Purine and pyrimidine CDK inhibitors and their use for the treatment of autoimmune diseases” (priority 2004, dated 2014)
“Also recorded” adds a separate entry of the source. Where two headings read alike, the source gives them in different places.

How the values were obtained:
[1] = Serum transaminase (AST, ALT) in NZB/W F1 lupus mice; settings: Example 1; for Serum Transaminase ALT / Serum Transaminase AST: mean ± SE
[2] = Body weight of NZB/W F1 lupus mice; settings: Example 1; for Body Weight: mean ± SE
[3] = Water intake of NZB/W F1 lupus mice; assay type: in vivo; set-up: Water intake: unit not given beside the values; settings: Example 1; for Water intake: mean ± SE
[4] = tested on: anti-dsDNA autoantibodies; experiment: Serum anti-DNA antibodies in NZB/W F1 lupus mice; settings: Example 1; for Serum anti-DNA antibodies: mean ± SE
[5] = Food intake of NZB/W F1 lupus mice; assay type: in vivo; settings: Example 1; for Food Intake: mean ± SE
[6] = biological target: CDK1B (Homo sapiens, UniProt P06493); experiment: In-house kinase assay (32P incorporation); assay type: biochemical; settings: in-house kinase assays
Method: (§1) Kinase activity was investigated by measuring the incorporation of radioactive phosphate from ATP into appropriate polypeptide substrates. Recombinant protein kinases and kinase complexes were produced or obtained commercially. Assays were performed using 96-well plates and appropriate assay buffers (typically 25 mM β-glycerophosphate, 20 mM MOPS, 5 mM EGTA, 1 mM DTT, 1 mM […], pH 7.4), into which were added 2-4 μg of active enzyme with appropriate substrates. The reactions were initiated by addition of Mg/ATP mix (15 mM MgCl2+100 μM ATP with 30-50 kBq per well of [γ-^32P]-ATP) and mixtures incubated as required at 30° C. Reactions were stopped on ice, followed by filtration through p81 filterplates or GF/C filterplates (Whatman Polyfiltronics, Kent, UK). After washing 3 times with 75 mM aq orthophosphoric acid, plates were dried, scintillant added and incorporated radioactivity measured in a scintillation counter (TopCount, Packard Instruments, Pangbourne, Berks, UK). Compounds for kinase assay were made up as 10 mM stocks in DMSO and diluted into 10% DMSO in assay buffer.

[7] = biological target: CDK6D3 (Homo sapiens, UniProt Q00534); experiment: In-house kinase assay (32P incorporation); assay type: biochemical; settings: in-house kinase assays
Method: as §1

[8] = biological target: T1, AurA (Homo sapiens, UniProt O14965); experiment: In-house kinase assay (32P incorporation); assay type: biochemical; settings: in-house kinase assays
T1 sequence (O14965 1-403): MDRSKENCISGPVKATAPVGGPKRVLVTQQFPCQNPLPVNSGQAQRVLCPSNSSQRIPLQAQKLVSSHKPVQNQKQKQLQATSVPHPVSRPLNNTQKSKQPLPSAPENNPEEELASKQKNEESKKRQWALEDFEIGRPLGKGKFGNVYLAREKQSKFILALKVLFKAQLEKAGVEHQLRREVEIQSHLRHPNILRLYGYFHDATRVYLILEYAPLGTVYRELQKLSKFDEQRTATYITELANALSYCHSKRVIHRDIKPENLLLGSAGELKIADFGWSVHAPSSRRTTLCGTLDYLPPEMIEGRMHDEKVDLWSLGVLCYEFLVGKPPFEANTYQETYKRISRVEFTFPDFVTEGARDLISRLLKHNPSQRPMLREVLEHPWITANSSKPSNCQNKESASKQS
Method: as §1

[9] = biological target: AurB (Homo sapiens, UniProt Q96GD4); experiment: In-house kinase assay (32P incorporation); assay type: biochemical; settings: in-house kinase assays
Method: as §1

[10] = biological target: CDK7/cyclin H (Homo sapiens, UniProt P50613); experiment: CDK 7 and 9 assay (CTD peptide substrate); assay type: biochemical; settings: in-house kinase assays; read-out: Average IC50 CDK7H
Method: as §1
(§2) The reaction was stopped by placing the plate on ice for 2 min. Avidin (50 μg) was added to each well, and the plate was incubated at room temp for 30 min. The samples were transferred to a 96-well P81 filter plate, and washed (4×200 μL per well) with 75 mM phosphoric acid. Microscint 40 scintillation liquid (50 μL) was added to each well, and the amount of ^32P incorporation for each sample was measured using a Packard Topcount microplate scintillation counter.

[11] = biological target: CDK9/cyclin T1 (Homo sapiens, UniProt P50750); experiment: CDK 7 and 9 assay (CTD peptide substrate); assay type: biochemical; settings: in-house kinase assays; read-out: Average IC50 CDK9T1
Method: as §1, §2

[12] = tested on: tumour cell panels; experiment: In-house 72 hour cytotoxicity assays on tumour cell panels; assay type: cell-based
[13] = tested on: stimulated PBMCs; experiment: T cell proliferation assay (BrdU ELISA in stimulated PBMCs); assay type: cell-based
Method: PBMCs were seeded in 96 well plates at 1×10^5 cells/well, in 50 μL per well culture medium. […] All stimulants and compounds were made up to 4× final concentration in tissue culture medium and 25 μL of each drug and stimulant was then added to wells, for a final volume of 100 μL/well. For unstimulated controls, 25 μL tissue culture medium was added to wells instead of stimulant and for untreated cells, 25 μL/well tissue culture medium containing equal volume DMSO (0.1% final) was added. Three adjacent wells were treated for each stimulation/treatment condition and the mean value calculated for analysis.
In addition, PBMCs were stimulated with ConA (Concanavalin A, Sigma C5275) at concentrations ranging from 0.5 μg/mL to 100 μg/mL to identify its stimulatory effect and optimal concentration.
Cells were labelled with BrdU for two hours prior to harvesting. Plates were then centrifuged for 10 minutes at 300 g (RT), supernatant removed from wells by pipetting and cells dried for 1 hour at 60° C. FixDenat solution was added to plates (100 μL/well) and incubated for 30 minutes, then flicked to remove and anti-BrdU-POD solution added to plates (100 μL/well) and incubated for 90 minutes.

[14] = biological target: CDK4D1 (Homo sapiens, UniProt P11802); experiment: In-house kinase assay (32P incorporation); assay type: biochemical; settings: in-house kinase assays
Method: as §1

[15] = biological target: CDK2E (Homo sapiens, UniProt P24941); experiment: In-house kinase assay (32P incorporation); assay type: biochemical; settings: in-house kinase assays
Method: as §1

[16] = 100 mg/kg therapeutic (from 5 months)
[17] = 100 mg/kg daily by gavage from 2 months (preventive), age 2 months
[18] = 100 mg/kg daily by gavage from 2 months (preventive), age 3 months
[19] = 100 mg/kg daily by gavage from 2 months (preventive), age 4 months
[20] = 100 mg/kg daily by gavage from 2 months (preventive), age 5 months
[21] = 200 mg/kg daily by gavage from 2 months (preventive), age 2 months
[22] = 200 mg/kg daily by gavage from 2 months (preventive), age 3 months
[23] = 200 mg/kg daily by gavage from 2 months (preventive), age 5 months
[24] = 100 mg/kg daily by gavage from 2 months (preventive), age 2.5 months
[25] = 100 mg/kg daily by gavage from 2 months (preventive), age 3.5 months
[26] = 100 mg/kg daily by gavage from 2 months (preventive), age 4.5 months
[27] = 200 mg/kg daily by gavage from 2 months (preventive), age 2.5 months
[28] = 200 mg/kg daily by gavage from 2 months (preventive), age 3.5 months
[29] = every two weeks from 2 to 5 months
[30] = rounded IC50 value used for ease of calculation in PBMC assays, read-out: IC50 Used

Chain of CDK6D3 (Q00534 whole entry): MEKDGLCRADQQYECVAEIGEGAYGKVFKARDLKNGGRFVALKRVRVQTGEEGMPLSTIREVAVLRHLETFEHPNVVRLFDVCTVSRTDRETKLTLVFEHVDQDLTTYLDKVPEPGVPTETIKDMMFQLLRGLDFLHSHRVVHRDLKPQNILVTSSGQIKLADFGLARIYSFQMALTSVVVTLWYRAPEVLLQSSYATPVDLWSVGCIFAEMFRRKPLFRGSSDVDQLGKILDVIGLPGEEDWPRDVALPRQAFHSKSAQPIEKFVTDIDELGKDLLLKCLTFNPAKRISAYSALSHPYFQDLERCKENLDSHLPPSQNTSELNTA
Chain of CDK6D3 (P30281 whole entry partner): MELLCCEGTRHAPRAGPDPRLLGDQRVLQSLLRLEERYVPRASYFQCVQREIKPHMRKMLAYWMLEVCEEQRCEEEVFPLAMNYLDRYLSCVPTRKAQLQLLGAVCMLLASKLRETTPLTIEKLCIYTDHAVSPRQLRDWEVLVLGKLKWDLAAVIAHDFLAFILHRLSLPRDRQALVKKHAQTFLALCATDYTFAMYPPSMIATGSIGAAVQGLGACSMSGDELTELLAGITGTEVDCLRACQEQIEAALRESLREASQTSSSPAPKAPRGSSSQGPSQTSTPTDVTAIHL
Chain of CDK7/cyclin H (P50613 whole entry): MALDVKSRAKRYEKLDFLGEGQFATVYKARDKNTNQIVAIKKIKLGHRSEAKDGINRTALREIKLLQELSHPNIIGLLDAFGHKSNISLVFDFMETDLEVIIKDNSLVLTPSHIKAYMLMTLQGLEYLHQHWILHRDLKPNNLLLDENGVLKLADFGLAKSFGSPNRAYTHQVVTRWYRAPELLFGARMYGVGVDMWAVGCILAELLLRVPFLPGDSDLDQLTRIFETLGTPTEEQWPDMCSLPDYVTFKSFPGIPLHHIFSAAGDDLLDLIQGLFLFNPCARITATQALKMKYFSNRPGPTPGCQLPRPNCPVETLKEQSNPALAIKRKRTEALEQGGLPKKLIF
Chain of CDK7/cyclin H (P51946 whole entry partner): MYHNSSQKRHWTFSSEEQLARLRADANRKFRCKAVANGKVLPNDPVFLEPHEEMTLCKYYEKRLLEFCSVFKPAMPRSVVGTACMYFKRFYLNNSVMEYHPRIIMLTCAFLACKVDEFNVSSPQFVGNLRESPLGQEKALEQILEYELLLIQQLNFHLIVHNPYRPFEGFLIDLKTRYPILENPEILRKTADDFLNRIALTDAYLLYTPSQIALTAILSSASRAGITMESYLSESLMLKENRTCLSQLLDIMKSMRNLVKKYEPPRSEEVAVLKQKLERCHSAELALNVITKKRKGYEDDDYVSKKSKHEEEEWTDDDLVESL
Chain of AurB (Q96GD4 whole entry): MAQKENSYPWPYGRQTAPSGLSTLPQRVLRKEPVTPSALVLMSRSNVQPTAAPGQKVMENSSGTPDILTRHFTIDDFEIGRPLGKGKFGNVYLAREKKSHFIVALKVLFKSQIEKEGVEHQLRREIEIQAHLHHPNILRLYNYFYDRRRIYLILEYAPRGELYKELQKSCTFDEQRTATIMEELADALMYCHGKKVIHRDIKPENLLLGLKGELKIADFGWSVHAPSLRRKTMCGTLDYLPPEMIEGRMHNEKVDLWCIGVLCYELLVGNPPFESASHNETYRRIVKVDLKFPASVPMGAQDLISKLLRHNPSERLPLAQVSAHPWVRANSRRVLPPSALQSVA
Chain of CDK1B (P06493 whole entry): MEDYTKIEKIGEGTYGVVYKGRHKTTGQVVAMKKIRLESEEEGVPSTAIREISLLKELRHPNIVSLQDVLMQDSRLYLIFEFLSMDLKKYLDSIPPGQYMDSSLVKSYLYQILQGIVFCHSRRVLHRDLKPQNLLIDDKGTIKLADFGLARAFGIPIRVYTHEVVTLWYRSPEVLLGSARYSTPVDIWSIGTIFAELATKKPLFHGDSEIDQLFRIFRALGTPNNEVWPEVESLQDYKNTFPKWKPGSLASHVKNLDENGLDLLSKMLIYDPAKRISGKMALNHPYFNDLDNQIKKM
Chain of CDK1B (P14635 whole entry partner): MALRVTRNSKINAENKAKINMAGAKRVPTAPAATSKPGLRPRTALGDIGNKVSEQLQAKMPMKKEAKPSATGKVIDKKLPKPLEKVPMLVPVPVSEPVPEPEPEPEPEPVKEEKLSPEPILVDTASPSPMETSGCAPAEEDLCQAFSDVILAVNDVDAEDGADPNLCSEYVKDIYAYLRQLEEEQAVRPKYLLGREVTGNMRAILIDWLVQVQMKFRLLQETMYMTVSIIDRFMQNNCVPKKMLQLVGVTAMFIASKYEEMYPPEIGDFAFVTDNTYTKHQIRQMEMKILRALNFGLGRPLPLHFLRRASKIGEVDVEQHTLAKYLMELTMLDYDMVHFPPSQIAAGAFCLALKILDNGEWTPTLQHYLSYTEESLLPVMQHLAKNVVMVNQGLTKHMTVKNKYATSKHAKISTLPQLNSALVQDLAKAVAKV
Chain of CDK4D1 (P11802 whole entry): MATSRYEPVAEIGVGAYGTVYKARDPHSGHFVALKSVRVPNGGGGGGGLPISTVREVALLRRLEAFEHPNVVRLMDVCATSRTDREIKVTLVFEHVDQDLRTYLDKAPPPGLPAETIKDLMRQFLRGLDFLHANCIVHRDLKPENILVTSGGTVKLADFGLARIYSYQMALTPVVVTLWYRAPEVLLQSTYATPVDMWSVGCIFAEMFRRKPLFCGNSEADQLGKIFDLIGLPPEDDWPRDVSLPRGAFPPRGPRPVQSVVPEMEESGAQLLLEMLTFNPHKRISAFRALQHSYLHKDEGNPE
Chain of CDK4D1 (P24385 whole entry partner): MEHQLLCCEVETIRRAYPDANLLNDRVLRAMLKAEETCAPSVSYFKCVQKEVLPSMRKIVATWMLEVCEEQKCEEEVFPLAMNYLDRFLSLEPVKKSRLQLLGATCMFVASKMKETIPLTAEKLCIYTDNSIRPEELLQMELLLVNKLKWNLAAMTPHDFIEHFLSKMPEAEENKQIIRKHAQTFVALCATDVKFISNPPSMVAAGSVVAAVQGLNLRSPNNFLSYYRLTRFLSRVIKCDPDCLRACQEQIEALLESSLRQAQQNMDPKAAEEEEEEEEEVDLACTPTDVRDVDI
Chain of CDK9/cyclin T1 (P50750 whole entry): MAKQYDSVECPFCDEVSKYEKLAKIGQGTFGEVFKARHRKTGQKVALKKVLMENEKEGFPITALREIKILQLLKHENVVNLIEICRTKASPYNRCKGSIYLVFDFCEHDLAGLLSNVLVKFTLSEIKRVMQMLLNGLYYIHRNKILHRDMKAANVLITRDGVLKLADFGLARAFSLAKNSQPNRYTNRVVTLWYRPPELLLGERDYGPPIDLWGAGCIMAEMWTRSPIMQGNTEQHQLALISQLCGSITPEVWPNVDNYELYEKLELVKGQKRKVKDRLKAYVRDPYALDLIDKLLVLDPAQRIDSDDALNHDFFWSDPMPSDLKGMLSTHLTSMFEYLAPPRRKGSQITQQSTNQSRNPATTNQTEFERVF
Chain of CDK9/cyclin T1 (O60563 whole entry partner): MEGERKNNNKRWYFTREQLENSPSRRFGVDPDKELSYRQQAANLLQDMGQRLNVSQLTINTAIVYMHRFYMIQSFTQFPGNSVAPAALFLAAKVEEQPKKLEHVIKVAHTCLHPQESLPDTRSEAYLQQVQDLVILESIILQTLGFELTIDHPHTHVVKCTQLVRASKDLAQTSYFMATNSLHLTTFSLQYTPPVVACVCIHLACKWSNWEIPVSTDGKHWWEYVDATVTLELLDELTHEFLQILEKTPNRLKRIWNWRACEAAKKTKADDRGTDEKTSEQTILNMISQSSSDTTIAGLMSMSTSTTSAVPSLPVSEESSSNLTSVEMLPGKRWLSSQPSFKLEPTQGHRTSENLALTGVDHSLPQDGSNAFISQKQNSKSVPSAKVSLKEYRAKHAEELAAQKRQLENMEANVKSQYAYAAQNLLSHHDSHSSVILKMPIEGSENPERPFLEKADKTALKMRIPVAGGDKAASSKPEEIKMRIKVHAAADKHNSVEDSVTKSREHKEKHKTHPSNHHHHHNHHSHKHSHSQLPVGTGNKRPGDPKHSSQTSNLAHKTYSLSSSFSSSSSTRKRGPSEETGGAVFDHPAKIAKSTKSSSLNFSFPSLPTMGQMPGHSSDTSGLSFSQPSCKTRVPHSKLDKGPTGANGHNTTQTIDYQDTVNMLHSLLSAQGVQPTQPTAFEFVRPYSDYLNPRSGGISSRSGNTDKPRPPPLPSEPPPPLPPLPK

CC[C@H](CO)Nc1nc(NCc2ccccc2)c2ncn(C(C)C)c2n1 [CYC202, 2-(1-R-hydroxymethylpropylamino)-6-benzylamino-9-isopropylpurine]
Serum Transaminase ALT [1, 16]: 36.00 ± 2.45 IU/L | Serum Transaminase AST [1, 16]: 74.40 ± 1.72 IU/L | Serum transaminase levels (ALT and AST) ([1]; 200 mg/kg from 2 months or 100 mg/kg from 5 months, similar to control mice): not modified by treatments | Serum Transaminase ALT ([1]; 200 mg/kg preventive): 36.44 ± 4.04 IU/L | Serum Transaminase AST ([1]; 200 mg/kg preventive): 62.89 ± 4.70 IU/L | Body Weight [2, 17]: 27.93 ± 0.62 | Body Weight [2, 18]: 27.86 ± 0.52 | Body Weight [2, 19]: 28.07 ± 0.57 | Body Weight [2, 20]: 28.64 ± 0.57 | Body Weight ([2]; 100 mg/kg daily by gavage from 2 months (preventive), age 6 months): 30.23 ± 0.67 | Body Weight ([2]; 100 mg/kg daily by gavage from 2 months (preventive), age 7 months): 31.50 ± 0.87 | Body Weight ([2]; 100 mg/kg daily by gavage from 2 months (preventive), age 8 months): 30.78 ± 0.91 | Body Weight ([2]; 100 mg/kg daily by gavage from 5 months (therapeutic), age 2 months): 26.71 ± 0.74 | Body Weight ([2]; 100 mg/kg daily by gavage from 5 months (therapeutic), age 3 months): 28.14 ± 0.69 | Body Weight ([2]; 100 mg/kg daily by gavage from 5 months (therapeutic), age 4 months): 29.43 ± 1.01 | Body Weight ([2]; 100 mg/kg daily by gavage from 5 months (therapeutic), age 5 months): 29.71 ± 0.82 | Body Weight ([2]; 100 mg/kg daily by gavage from 5 months (therapeutic), age 6 months): 31.45 ± 0.96 | Body Weight ([2]; 100 mg/kg daily by gavage from 5 months (therapeutic), age 7 months): 30.80 ± 1.69 | Body Weight ([2]; 100 mg/kg daily by gavage from 5 months (therapeutic), age 8 months): 29.80 ± 1.46 | Body Weight [2, 21]: 27.85 ± 0.72 | Body Weight [2, 22]: 28.00 ± 0.68 | Body Weight [2, 23]: 28.92 ± 0.35 | Body Weight ([2]; 200 mg/kg daily by gavage from 2 months (preventive), age 6 months): 31.58 ± 0.43 | Body Weight ([2]; 200 mg/kg daily by gavage from 2 months (preventive), age 7 months): 30.82 ± 0.35 | Body Weight ([2]; 200 mg/kg daily by gavage from 2 months (preventive), age 8 months): 31.60 ± 0.52 | Body weight versus other experimental groups ([2]; all CYC202 groups): No difference | Water intake [3, 17]: 6.64 ± 0.29 | Water intake [3, 24]: 5.14 ± 0.40 | Water intake [3, 18]: 4.21 ± 0.28 | Water intake [3, 25]: 5.00 ± 0.28 | Water intake [3, 19]: 5.57 ± 0.20 | Water intake [3, 26]: 4.43 ± 0.20 | Water intake [3, 20]: 3.93 ± 0.22 | Water intake [3, 21]: 5.31 ± 0.26 | Water intake [3, 27]: 4.77 ± 0.20 | Water intake [3, 22]: 4.92 ± 0.18 | Water intake [3, 28]: 5.08 ± 0.21 | Water intake [3, 23]: 4.23 ± 0.28 | Water intake versus vehicle [3, 29]: comparable | Serum anti-DNA antibodies ([4]; 100 mg/kg preventive, 5 months): 4.04 ± 0.76 U/ml | Serum anti-DNA antibodies ([4]; 100 mg/kg preventive, 8 months): 76.55 ± 21.40 U/ml | Serum anti-DNA antibodies ([4]; 200 mg/kg preventive, 5 months): 24.20 ± 6.52 U/ml | Serum anti-DNA antibodies ([4]; 200 mg/kg preventive, 8 months): 73.39 ± 21.13 U/ml | Anti-DNA antibody levels versus vehicle ([4]; treated from 2 months, both doses, at 5 or 8 months of age): significantly lower than vehicle | Food Intake [5, 17]: 3.69 ± 0.33 | Food Intake [5, 24]: 3.77 ± 0.23 | Food Intake [5, 18]: 3.92 ± 0.18 | Food Intake [5, 25]: 4.08 ± 0.18 | Food Intake [5, 19]: 3.92 ± 0.26 | Food Intake [5, 26]: 3.85 ± 0.30 | Food Intake [5, 20]: 3.85 ± 0.22 | Food Intake [5, 21]: 3.54 ± 0.29 | Food Intake [5, 27]: 4.08 ± 0.08 | Food Intake [5, 22]: 4.00 ± 0.11 | Food Intake [5, 28]: 4.08 ± 0.21 | Food Intake ([5]; 200 mg/kg daily by gavage from 2 months (preventive), age 4 months): 4.00 ± 0.16 | Food Intake ([5]; 200 mg/kg daily by gavage from 2 months (preventive), age 4.5 months): 4.00 ± 0.18 | Food Intake [5, 23]: 3.92 ± 0.29 | Food intake versus vehicle [5, 29]: comparable

Cc1nc(C)c(-c2ccnc(Nc3ccc(N(C)C)cc3)n2)s1 [Compound 4]
IC50 [6]: 7.46 µM | IC50 [7]: 1.04 µM | IC50 [8]: 0.038 µM | IC50 [9]: 0.03 µM | IC50 [10]: 8.57 µM | IC50 [11]: 1.88 µM | IC50 ([12]; PBMC, read-out: IC50 Used): 1 µM | BrdU incorporation ([13]; Example 3, PMA/I stimulated PBMCs, all concentrations): higher than in PHA stimulated cells | BrdU incorporation ([13]; Example 4, PHA or ConA stimulated PBMCs, 0.25×IC50 to 4×IC50, 48 and 72 hours): BrdU signals do not reduce to background levels; also recorded: fails to achieve complete inhibition of proliferation activity

CC[C@H](Nc1nc(NCc2cccnc2)c2ncn(C(C)C)c2n1)C(C)(C)O [Compound 6]
IC50 [14]: 19.3 µM | IC50 [6]: 7.6 µM | IC50 [7]: 9.19 µM | IC50 [8]: > 10 µM | IC50 [15]: 0.126 µM | IC50 [9]: > 10 µM | IC50 [10]: 1.33 µM | IC50 [11]: 0.338 µM | IC50 ([12]; 72 h, read-out: IC50 Average): 10.4 µM | IC50 [12, 30]: 10 µM

CC[C@H](Nc1nc(NCc2cccnc2)c2ncn(C(C)C)c2n1)[C@@H](C)O [Compound 8]
IC50 [6]: 1.99 µM | IC50 [7]: 0.168 µM | IC50 [8]: 0.652 µM | IC50 [9]: 0.399 µM | IC50 ([12]; 72 h, read-out: IC50 Average): 0.876 µM | IC50 [12, 30]: 1 µM

Cc1nc(N)sc1-c1ccnc(Nc2ccc(N3CCOCC3)cc2)n1 [Compound 11]
IC50 [10]: 0.266 µM | IC50 ([12]; 72 h, read-out: IC50 Average): 0.291 µM | IC50 [12, 30]: 0.5 µM

CNc1nc(C)c(-c2ccnc(Nc3ccc(N4CCNCC4)cc3)n2)s1 [Compound 12]
IC50 [14]: 1.02 µM | IC50 [6]: 1.03 µM | IC50 ([12]; 72 h, read-out: IC50 Average): 0.353 µM | IC50 [12, 30]: 0.5 µM
